Test results reported in article PMC10288505, “Photoswitchable Calixarene Activators for Controlled Peptide Transport across Lipid Membranes” (Journal of the American Chemical Society, 2023).

System: hexaarginine (R6)
Assay: Indicator displacement assay with host:LCG reporter pair, guest R6
Assay type: binding
Conditions: association constant, competitive dye displacement with LCG, 5 mM phosphate buffer pH 7.3; only the lower limit can be estimated
Text: The binding affinity of the anionic calixarene activators toward cationic peptides was investigated using a small library of highly hydrophilic oligoarginines, from 3 to 8 residues. These peptides are not able to spontaneously transverse zwitterionic artificial membranes in vesicle assays, which allows the accurate evaluation of the calixarenes 1 and 2 as counterion activators without interferences from the transport of the peptide alone.[43]−[45] First, the formation of host–guest complexes between 1/2 and the selected peptides was verified by indicator displacement assays using lucigenin (LCG) as the fluorescent indicator.[46] As previously reported for other sulfonatocalixarene derivatives,[46] the formation of host–guest binding pairs between calixarenes 1/2 in the E- and Z-forms and LCG results in significant static fluorescence quenching (see Figure 2A and Figures S26 and S27). Quantitative analysis of the fluorescence titration data using a 1:1 host:guest binding model allows the determination of the respective binding constants (K) reported in Table 1. As can be observed, both 1/2 display high affinity for the LCG dye, on the 10^7 M^–1 range, which seems to be independent of the nature and conformation of the azobenzene arm. […] The host:LCG binding pairs were then employed in the above-mentioned indicator displacement assays to investigate the binding affinity of oligoarginines toward 1 and 2 (see Figure 2B and Figures S29–S33).
Figure 2 (A) Fluorescence titration of the lucigenin dye (LCG, 1.5 μM) with increasing concentrations of E-2 in water (5 mM phosphate buffer, pH 7.3). […]
The binding affinities of the counterion activators and peptide complexes were analyzed by indicator displacement assays. […] Firstly, the affinity for LCG was calculated for each of the activators, by titrations followed by fluorescence spectroscopy leading to almost full quenching of the emission. […]
Figure S26 - Fluorescence titration of the lucigenin dye with increasing concentrations of A) E-1 and B) Z–1 in water (5 mM phosphate buffer pH 7.3). […]

Compound | Apparent affinity constant K for R6
O=S(=O)([O-])c1cc2c(O)c(c1)Cc1cc(S(=O)(=O)[O-])cc(c1O)Cc1cc(S(=O)(=O)[O-])cc(c1OCCCCCCOc1ccc(/N=N/c3ccccc3)cc1)Cc1cc(S(=O)(=O)[O-])cc(c1O)C2.[Li+].[Li+].[Li+].[Li+] [E-1] | >5 × 10^8 ^a M^–1
CCCCc1ccc(/N=N/c2ccc(OCCCOc3c4cc(S(=O)(=O)[O-])cc3Cc3cc(S(=O)(=O)[O-])cc(c3O)Cc3cc(S(=O)(=O)[O-])cc(c3O)Cc3cc(S(=O)(=O)[O-])cc(c3O)C4)cc2)cc1.[Li+].[Li+].[Li+].[Li+] [E-2] | >5 × 10^8 ^a M^–1
